Experimental data published in patent US20240027453A1, “METHOD FOR DETECTION AND QUANTITATIVE MONITORING OF INFECTIONS WITH HERPESVIRUSES” (The Trustees of Princeton University, priority 2020, published 2024).
Read-outs that look alike come from different tables or passages of the source.

Tested on: HCMV
Assay type: cell-based
Details: for UL47 (P16784) protein, numerical value of heatmap FIG. 6C / UL69 (P16749) protein, numerical value of heatmap FIG. 6C / UL70 (P17149) protein, numerical value of heatmap FIG. 6C / UL83 (P06725) protein, numerical value of heatmap FIG. 6C / UL132 (P69338) protein, numerical value of heatmap FIG. 6C / US15 (P09718) protein, numerical value of heatmap FIG. 6C / sp|P16810|IR12_HCMVA (P16810) protein, numerical value of heatmap FIG. 6C / DUT (P16824) protein, numerical value of heatmap FIG. 6C / TRM3 (P16732) protein, numerical value of heatmap FIG. 6C / TRX1 (P16783) protein, numerical value of heatmap FIG. 6C / TRX2 (P16728) protein, numerical value of heatmap FIG. 6C / UL24 (P16760) protein, numerical value of heatmap FIG. 6C / UL40 (P16780) protein, numerical value of heatmap FIG. 6C / UL49 (P16786) protein, numerical value of heatmap FIG. 6C / sp|P16808|IR10_HCMVA (P16808) protein, numerical value of heatmap FIG. 6C: LL
Protocol: In example herpesvirus PRM assay methods shown herein, cell pellets were lysed in 2% SDS, 100 mM NaCl, 0.5 mM EDTA, 50 mM Tris, pH 8.2, and 50 μg of protein was reduced and alkylated with 25 mM TCEP and 50 mM CAM respectively for 20 min at 70° C. Proteins were then precipitated via methanol chloroform precipitation (Wessel & Flugg, Anal Biochem. 138(1):141-143, 1984), resuspended in 50 mM HEPES, pH 8.2 and digested overnight with trypsin (50:1 protein:enzyme w/w ratio). Digested peptides were desalted by SDB-RPS StageTip as previously described (Lum et al., Cell Syst., 7(6):[…], 2018; Greco et al., Methods Mol Biol 1410:39-63, 2016; Federspiel & Cristea, Methods Mol Biol., 1977:115-143, 2019).
Peptides (1.0 μg on column) were analyzed by LC-MS/MS using a Dionex Ultimate 3000 UHPLC coupled online to an EASYSpray ion source and a Q Exactive HF. Peptides were separated on an EASYSpray C18 column (75 μm×25 cm) heated to 50° C. using a linear gradient of 5% B to 32% B over 60 min at a flow rate of 250 nL/min and were ionized at 1.7 kv. Mobile phase A consisted of 0.1% FA in H2O and mobile phase B consisted of 0.1% FA, 2.9% H2O in ACN.
The PRM method was controlled by a peptide inclusion list with retention time windows of 6 min for selected precursor ions.
The PRM assay was developed and analyzed using the open-source software Skyline (Maclean et al., Bioinformatics 26(7):966-968, 2010). Summed area under the curve of 3-4 transitions per peptide was used for quantitation. Targeted peptides were normalized to host protein loading control peptides. Peptide values for each sample were scaled to the average of each peptide across all runs. The average of multiple peptides was used as the inferred value for the protein measurement when more than one peptide was quantified (Federspiel et al., PLoS Biol. 17(9):e3000437. Doi: 10.1371/journal.pbio.3000437). PRM quantitation data were graphed using the Python Seaborn and Matplotlib libraries.
MRC5 primary human fibroblasts (HFs) (ATCC CCL-171) were used as the model system for HSV-1 and HCMV infections and were cultured in complete growth medium (DMEM supplemented with 10% fetal bovine serum and 1% penicillin-streptomycin antibiotics) at 37° C. and 5% CO2. iSLK.219 cells harboring latent KSHV (a gift from Dr. Britt Glaunsinger, University of California, Berkeley) were grown in complete growth medium supplemented with 500 μg/ml hygromycin (ThermoFisher Scientific, 10687010) at 37° C. and 5% CO2. All cells were used for experiments within a maximum of 10 passages.
Wild type HSV-1 strain 17+ (a gift from Beate Sodeik, Hannover Medical School, Hannover, Germany) was propagated as previously described (Diner et al., 2015). Briefly, PO stocks were generated by electroporating pBAC-HSV-1 into U-2 OS cells. […] In a similar manner, wild type HCMV strain AD169 was produced from BAC electroporation into HFs and working stocks were propagated by infecting HFs at a low level. In both cases, cell-associated virus was released by sonication, combined with supernatant virus, then concentrated by ultracentrifugation (20,000 rpm, 2 hours, 4° C. with SW28 swinging bucket rotor [Beckman Coulter]) over a 10% ficoll (HSV-1) or 20% sorbitol (HCMV) cushion. Virus stock titers were determined by plaque assay for HSV-1 or tissue culture infectious dose (TCID50) for HCMV and infections were performed at a multiplicity of infection (MOI) of 3.
12 hours prior to virus infection or reactivation, cells were treated with either the small molecule drug or DMSO/PBS control at an equivalent volume. […] For infection cycles lasting longer than 24 hours, small molecule drugs were re-added to the cell culture medium every 24 hours. Upon collection, cells were rinsed with PBS, scraped into a microcentrifuge tube, pelleted by centrifugation, and rinsed again with PBS.

SMILES: Nc1ccn(C[C@@H](CO)OCP(=O)(O)O)c(=O)n1 [CDV, cidofovir]
- UL47 (P16784) protein, numerical value of heatmap FIG. 6C (timepoint 48): 0.03052
- UL69 (P16749) protein, numerical value of heatmap FIG. 6C (timepoint 48): 0.2559
- UL70 (P17149) protein, numerical value of heatmap FIG. 6C (timepoint 48): 0.3143
- UL83 (P06725) protein, numerical value of heatmap FIG. 6C (timepoint 48): 0.03791
- UL132 (P69338) protein, numerical value of heatmap FIG. 6C (timepoint 48): 0.1131
- US15 (P09718) protein, numerical value of heatmap FIG. 6C (timepoint 48): 1.201
- sp|P16810|IR12_HCMVA (P16810) protein, numerical value of heatmap FIG. 6C (timepoint 48): 0.2103
- DUT (P16824) protein, numerical value of heatmap FIG. 6C (timepoint 72): 0.6275
- TRM3 (P16732) protein, numerical value of heatmap FIG. 6C (timepoint 72): 0.4913
- TRX1 (P16783) protein, numerical value of heatmap FIG. 6C (timepoint 72): 0.3363
- TRX2 (P16728) protein, numerical value of heatmap FIG. 6C (timepoint 72): 0.3619
- UL24 (P16760) protein, numerical value of heatmap FIG. 6C (timepoint 72): 0.3923
- UL40 (P16780) protein, numerical value of heatmap FIG. 6C (timepoint 72): 0.7811
- UL47 (P16784) protein, numerical value of heatmap FIG. 6C (timepoint 72): 0.4114
- UL49 (P16786) protein, numerical value of heatmap FIG. 6C (timepoint 72): 0.5948
- UL69 (P16749) protein, numerical value of heatmap FIG. 6C (timepoint 72): 0.6759
- UL70 (P17149) protein, numerical value of heatmap FIG. 6C (timepoint 72): 0.743
- UL83 (P06725) protein, numerical value of heatmap FIG. 6C (timepoint 72): 0.4276
- UL132 (P69338) protein, numerical value of heatmap FIG. 6C (timepoint 72): 0.4516
- US15 (P09718) protein, numerical value of heatmap FIG. 6C (timepoint 72): 0.8899
- sp|P16808|IR10_HCMVA (P16808) protein, numerical value of heatmap FIG. 6C (timepoint 72): 0.2743
- sp|P16810|IR12_HCMVA (P16810) protein, numerical value of heatmap FIG. 6C (timepoint 72): 0.6875
- DUT (P16824) protein, numerical value of heatmap FIG. 6C (timepoint 96): 0.7823
- TRM3 (P16732) protein, numerical value of heatmap FIG. 6C (timepoint 96): 0.7025
- TRX1 (P16783) protein, numerical value of heatmap FIG. 6C (timepoint 96): 0.8409
- TRX2 (P16728) protein, numerical value of heatmap FIG. 6C (timepoint 96): 0.8413
- UL24 (P16760) protein, numerical value of heatmap FIG. 6C (timepoint 96): 0.7085
- UL40 (P16780) protein, numerical value of heatmap FIG. 6C (timepoint 96): 0.7467
- UL47 (P16784) protein, numerical value of heatmap FIG. 6C (timepoint 96): 0.7604
- UL69 (P16749) protein, numerical value of heatmap FIG. 6C (timepoint 96): 0.9032
- UL70 (P17149) protein, numerical value of heatmap FIG. 6C (timepoint 96): 0.8327
- UL83 (P06725) protein, numerical value of heatmap FIG. 6C (timepoint 96): 1.027
- UL132 (P69338) protein, numerical value of heatmap FIG. 6C (timepoint 96): 0.6887
- US15 (P09718) protein, numerical value of heatmap FIG. 6C (timepoint 96): 0.6108
- sp|P16808|IR10_HCMVA (P16808) protein, numerical value of heatmap FIG. 6C (timepoint 96): 0.6859
- sp|P16810|IR12_HCMVA (P16810) protein, numerical value of heatmap FIG. 6C (timepoint 96): 0.5726
- DUT (P16824) protein, numerical value of heatmap FIG. 6C (timepoint 120): 1.034
- TRM3 (P16732) protein, numerical value of heatmap FIG. 6C (timepoint 120): 0.9855
- TRX1 (P16783) protein, numerical value of heatmap FIG. 6C (timepoint 120): 1.114
- TRX2 (P16728) protein, numerical value of heatmap FIG. 6C (timepoint 120): 1.493
- UL24 (P16760) protein, numerical value of heatmap FIG. 6C (timepoint 120): 1.171
- UL40 (P16780) protein, numerical value of heatmap FIG. 6C (timepoint 120): 0.9491
- UL47 (P16784) protein, numerical value of heatmap FIG. 6C (timepoint 120): 0.9878
- UL49 (P16786) protein, numerical value of heatmap FIG. 6C (timepoint 120): 0.6463
- UL69 (P16749) protein, numerical value of heatmap FIG. 6C (timepoint 120): 1.467
- UL70 (P17149) protein, numerical value of heatmap FIG. 6C (timepoint 120): 1.255
- UL83 (P06725) protein, numerical value of heatmap FIG. 6C (timepoint 120): 1.677
- UL132 (P69338) protein, numerical value of heatmap FIG. 6C (timepoint 120): 0.8677
- US15 (P09718) protein, numerical value of heatmap FIG. 6C (timepoint 120): 0.4974
- sp|P16808|IR10_HCMVA (P16808) protein, numerical value of heatmap FIG. 6C (timepoint 120): 0.9054
- sp|P16810|IR12_HCMVA (P16810) protein, numerical value of heatmap FIG. 6C (timepoint 120): 0.762
- levels of HCMV IE and E proteins (early time points): decreased levels
